Test results from PMC3038857, “Using Nuclear Receptor Activity to Stratify Hepatocarcinogens” (PLoS ONE, 2011).
Read-outs that look alike come from different tables or passages of the source.

Columns and labels:
liver [1] = conditions: in vivo
PPAR [2] = experiment: Aggregate nuclear receptor activity: PPAR; conditions: aggregate human NR activity, in words
Excerpt: (§1) To summarize the activity of chemicals across the NR superfamily we aggregated the ToxCast assays for genes and NR groups as follows: retinoic X receptor-like (RXR; [drawing 5]; NR2B); peroxisome proliferator-activated receptor-like (PPAR; [drawing 6]; NR1C); constitutive androstane receptor ( [drawing 7]; [drawing 8]; [drawing 9] ); pregnane X receptor ( [drawing 10]; [drawing 11] ); liver X receptor-like (LXR; [drawing 12] , FXR; NR1H); and steroid receptor-like (SR; [drawing 13] , [drawing 14] , [drawing 15] ). These are shown visually in Figure 1(a). As there were differences in the number and types of assays for each group, aggregate activity was calculated as the average potency across the assays measured by the AC50 or LEC (described in Methods). This approach aggregated NR binding, activation, agonism or antagonism results into a single assessment of activity.
(§2) All data used in this analysis are publicly available from the ToxCast website (www.epa.gov/toxcast). The analysis was conducted using the R statistical language (www.r-project.org). For each chemical [drawing 77] , and assay [drawing 78] combination we derived either the AC50 (50% maximal activity concentration) or LEC (Lowest Effective Concentration) in [drawing 79] M denoted as, [drawing 80] . All chemicals are provided in Dataset S3 and all assays are given in Dataset S1. The procedure for evaluating the quality of [drawing 81] are described in the supplementary methods (Text S1) and all assay results are provided in Dataset S2. In order to facilitate comparison across the assays the [drawing 82] were transformed by the formula, [drawing 83] where [drawing 84] represents a the potency on an ascending scale, and [drawing 85] is the maximum concentration (lowest potency) across the data set.
(§3) The aggregate NR activity [drawing 86] , where [drawing 87] , was calculated using assays [drawing 88] . The aggregate scaled NR activity score for each chemical [drawing 89] was calculated as the average concentration value across the assays, scaled by the maximum value across all chemicals using Equation 1. [drawing 90] (1)

LXR = experiment: Aggregate nuclear receptor activity: LXR; conditions: aggregate human NR activity, in words
Excerpt: as §1, §2
as §3, with “(1)” left out

CAR = experiment: Aggregate nuclear receptor activity: CAR; conditions: aggregate human NR activity, in words
Excerpt: as §1, §2, §3

human PXR = system: human PXR; set-up: method as in PMID 16565514; conditions: cited from earlier work
PXR = experiment: Aggregate nuclear receptor activity: PXR; set-up: species or system human
Excerpt: as §1, §2, §3

[3] = system: SR (steroid receptor-like); experiment: Aggregate nuclear receptor activity: SR; conditions: aggregate human NR activity, in words
Excerpt: as §1, §2, §3

AhR = experiment: Aggregate nuclear receptor activity: AhR; conditions: aggregate human NR activity, in words
Excerpt: as §1, §2, §3

SR = conditions: cited from earlier work
[4] = system: AhR, CAR, PXR, PPAR, LXR, SR and RXR
liver [5] = experiment: Cancer lesion progression: 2-year chronic rat and mouse liver histopathology (ToxRefDB), lesion progression groups (LPG); conditions: liver lesions after 2-year chronic treatment, ToxRefDB data clustered into groups I-VIII
PPAR [6] = system: PPAR; set-up: method as in PMID 17084873; conditions: in rats; cited from earlier work
[7] = system: cytochrome P-450 in the 2B subfamily; conditions: mouse, in vivo; cited from earlier work
[8] = aggregate human NR activity, in words

SMILES | lesion progression group (LPG) (liver [1]) | activity with PPAR (PPAR [2]) | activity with CAR (CAR) | activity with PXR (PXR; [8]) | activity with SR [3] | activity with AhR (AhR) | also measured
CC(C)Oc1cc(-n2nc(C(C)(C)C)oc2=O)c(Cl)cc1Cl [Oxadiazon, 5-tert-butyl-3-(2,4-dichloro-5-isopropoxyphenyl)-1,3,4-oxadiazol-2(3H)-one] | I | less frequently | consistently active | consistently active | less frequently | consistently active | activity with LXR (LXR): less frequently; human PXR activity (human PXR): known human PXR activity
CCOC(=O)CC(SP(=S)(OC)OC)C(=O)OCC (centres unmarked) [Malathion, diethyl 2-[(dimethoxyphosphorothioyl)thio]succinate] |  | most consistently active | some activity | some activity | some activity | some activity | SR activity (SR): known SR activity
N#Cc1c[nH]cc1-c1cccc2c1OC(F)(F)O2 [Fludioxonil, 4-(2,2-difluoro-1,3-benzodioxol-4-yl)-1H-pyrrole-3-carbonitrile] |  | less frequently |  | consistently active | less frequently |  | activity with LXR (LXR): less frequently
CC[C@H](C)[C@H]1O[C@]2(C=C[C@@H]1C)C[C@@H]1C[C@@H](C/C=C(\C)[C@@H](O[C@H]3C[C@H](OC)[C@@H](O[C@H]4C[C@H](OC)[C@@H](NC)[C@H](C)O4)[C@H](C)O3)[C@@H](C)/C=C/C=C3\CO[C@@H]4[C@H](O)C(C)=C[C@@H](C(=O)O1)[C@]34O)O2.O=C(O)c1ccccc1 [Emamectin benzoate, (2aE,4E,5\S,6S,6\R,7S,8E,11R,13S,15S,17aR,20R,20aR,20bS)-20,20b-dihydroxy-5\,6,8,19-tetramethyl-6\-[(1S)-1-methylpropyl]-17-oxo-5\,6,6\,10,11,14,15,17,17a,20,20a,20b-dodecahydro-2H,7H-spiro[11,15-methanofuro[4,3,2-pq][2,6]benzodioxacyclooctadecine-13,2\-pyran]-7-yl 2,6-dideoxy-3-O-methyl-4-O-[2,4,6-trideoxy-3-O-methyl-4-(methylammonio)-a-L-arabino-hexopyranosyl]-a-L-arabino-hexopyranoside benzoate] | Emamectin benzoate |  |  |  |  |  | 
CCCCOC(=O)c1ccccc1C(=O)OCCCC [Dibutyl phthalate, dibutyl phthalate] |  |  |  |  |  |  | overall NR activity [4]: low NR activity
C=CC1(C)OC(=O)N(c2cc(Cl)cc(Cl)c2)C1=O (centres unmarked) [Vinclozolin, 3-(3,5-dichlorophenyl)-5-methyl-5-vinyl-1,3-oxazolidine-2,4-dione] | I | most consistently active |  |  | some activity | some activity | SR activity (SR): known SR active; activity with PXR (PXR): some activity
CCOC(=O)C(C)OC(=O)c1cc(Oc2ccc(C(F)(F)F)cc2Cl)ccc1[N+](=O)[O-] (centres unmarked) [Lactofen, 2-ethoxy-1-methyl-2-oxoethyl 5-[2-chloro-4-(trifluoromethyl)phenoxy]-2-nitrobenzoate] | I | less frequently | consistently active |  | less frequently | consistently active | activity with LXR (LXR): less frequently; activity with PXR (PXR): consistently active
CNC(=O)Oc1cccc2ccccc12 [Carbaryl, naphthalen-1-yl methylcarbamate] |  |  |  |  |  |  | SR activity (SR): activity
CCNC(=O)NC(=O)/C(C#N)=N/OC [Cymoxanil, (2E)-2-cyano-N-(ethylcarbamoyl)-2-(methoxyimino)acetamide] | Cymoxanil |  |  |  |  |  | 
COC(=O)C(C)Oc1ccc(Oc2ccc(Cl)cc2Cl)cc1 (centres unmarked) [Diclofop-methyl, methyl 2-[4-(2,4-dichlorophenoxy)phenoxy]propanoate] |  | most consistently active | some activity | some activity | some activity | some activity | lesion progression group (LPG) (liver [5]): I; PPAR activity (PPAR [6]): active
Cl[C@H]1[C@H](Cl)[C@@H](Cl)[C@@H](Cl)[C@H](Cl)[C@H]1Cl [Lindane, (1r,2R,3S,4r,5R,6S)-1,2,3,4,5,6-hexachlorocyclohexane] | Lindane |  |  | active |  | active | 
CC(C1CC1)C(O)(Cn1cncn1)c1ccc(Cl)cc1 (centres unmarked) [Cyproconazole, 2-(4-chlorophenyl)-3-cyclopropyl-1-(1H-1,2,4-triazol-1-yl)butan-2-ol] |  |  |  |  |  |  | expression of a cytochrome P-450 in the 2B subfamily [7]: induce expression
CS(=O)(=O)c1cc(C(F)(F)F)ccc1C(=O)c1cnoc1C1CC1 [Isoxaflutole, (5-cyclopropylisoxazol-4-yl)[2-(methylsulfonyl)-4-(trifluoromethyl)phenyl]methanone] | I |  |  |  |  |  | 
